Entries after “also recorded” stand apart in the source; their conditions may differ.
How the values were obtained:
Kv1.3 = Kv1.3 (Homo sapiens, UniProt P22001); settings: cited from earlier work; for inhibition of Kv1.3 activity: therapeutic levels
Kv1.1 = Kv1.1 (Homo sapiens, UniProt Q09470); settings: cited from earlier work
Kv1.2 = Kv1.2 (Homo sapiens, UniProt P16389); settings: cited from earlier work
ob/ob mice [1] = test: Insulin sensitivity (blood glucose after IP human insulin) in non-fasting ob/ob mice given toxin; assay type: in vivo, mouse; settings: for insulin sensitivity: non-fasting ob/ob mice, toxin IP 30 minutes before insulin
Description: Non-fasting ob/ob (obese) mice (n=5), were given margatoxin 30 minutes prior to study as described elsewhere herein. Age-matched control ob/ob mice were sham injected with PBS. Both groups were given human insulin and blood glucose levels were monitored as described previously.
Non-fasting ob/ob (obese) mice (n=5), were given kaliotoxin (Alomone, Israel) 30 minutes prior to study as described elsewhere herein. Age-matched control ob/ob mice were sham injected with PBS. Both groups were given human insulin and blood glucose levels were monitored as described previously.

[2] = therapeutic dosages; cited from earlier work
C57BL/6 mice = test: Insulin sensitivity (blood glucose after IP human insulin) in wild type C57BL/6 mice given margatoxin; assay type: in vivo, mouse
Description: Plasma insulin levels and insulin sensitivity: Seven-week old C57BL6/6J male mice (n=5) were given 0.1 μg/gram body weight margatoxin 20 hours prior to study via IP injection. Controls (n=5) were sham injected with phosphate buffered saline (PBS). Two hours prior to study a second injection of margatoxin was administered to the treated experimental group. At t=0, both groups received human insulin as described previously. Blood glucose measurements were performed at the times indicated.

db/db mice = test: Insulin sensitivity (blood glucose after IP human insulin) in fasting db/db mice given margatoxin; assay type: in vivo, mouse
Description: Fasting db/db (diabetic) mice (n=5), were given margatoxin 30 minutes prior to study as described elsewhere herein. Age-matched control db/db mice were sham injected with PBS. Both groups were given human insulin and blood glucose levels were monitored as described previously.

L6 cells = test: D-glucose uptake in L6 cells; assay type: cell-based, rat
Description: D-glucose uptake in L6 cells: L6 cells were maintained in Dulbecco's Modified Eagle's Medium (DMEM) containing 10% fetal bovine serum (FBS) and 1% penicillin-streptomycin in T-75 flasks at 37° C. and 5% CO2. To promote fusion into myotubules and quiescence, L6 cells were seeded onto 10 cm^2 flasks at a density of 3000 cells/cm^2 in DMEM containing 2% FBS. Myotube formation was determined by the percentage of nuclei in multinucleated cells. Glucose uptake assays were performed when 80-90% of the myoblasts fused into myotubes. Cells were serum starved for 3 hours in DMEM containing 0.2% bovine serum albumin, washed twice in PBS with 0.1 mM CaCl2, 0.1 MgCl2, 10 mM HEPES, pH 7.4. […] 2-deoxy-(^3H)D-glucose (1 μCi/ml, 10 μM/liter) uptake was measured in triplicate over a 10 minute period. The reaction was terminated by washing with ice-cold PBS. Non-specific uptake was determined by adding 10 mM phloretin and was subtracted from total uptake. Cells were lysed in 0.1 N KOH, and glucose uptake was measured by liquid scintillation (Packard BioScience, Meriden Conn.). […] was measured by Bradford Assay.

ob/ob mice [3] = test: Long-term pharmacological inhibition of Kv1.3 in ob/ob mice: food consumption and body weight; assay type: in vivo, mouse
Description: Long-term pharmacological inhibition of Kv1.3: Ob/ob mice were injected intraperitoneally with margatoxin or PBS (n=5 for each group) on days 0, 5, and 16 as described herein. Food consumption was monitored for 30 days, and weights were measured at the end of 30 days.

Chain of Kv1.3 (P22001 whole entry): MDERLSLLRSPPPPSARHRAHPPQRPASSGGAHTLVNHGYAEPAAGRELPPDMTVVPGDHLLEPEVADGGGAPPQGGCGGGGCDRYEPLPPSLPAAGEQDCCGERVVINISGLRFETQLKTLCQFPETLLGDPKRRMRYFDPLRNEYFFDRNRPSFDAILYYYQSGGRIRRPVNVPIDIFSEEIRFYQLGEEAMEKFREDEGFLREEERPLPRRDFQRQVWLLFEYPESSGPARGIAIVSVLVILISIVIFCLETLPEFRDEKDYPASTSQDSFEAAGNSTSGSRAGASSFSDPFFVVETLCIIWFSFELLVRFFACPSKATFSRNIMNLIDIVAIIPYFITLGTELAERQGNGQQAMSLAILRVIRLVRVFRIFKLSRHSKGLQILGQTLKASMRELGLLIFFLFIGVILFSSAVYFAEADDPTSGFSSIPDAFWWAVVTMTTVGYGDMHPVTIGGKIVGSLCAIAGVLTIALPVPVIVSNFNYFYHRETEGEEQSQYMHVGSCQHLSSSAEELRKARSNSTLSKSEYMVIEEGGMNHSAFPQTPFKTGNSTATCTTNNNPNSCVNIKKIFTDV
Chain of Kv1.2 (P16389 whole entry): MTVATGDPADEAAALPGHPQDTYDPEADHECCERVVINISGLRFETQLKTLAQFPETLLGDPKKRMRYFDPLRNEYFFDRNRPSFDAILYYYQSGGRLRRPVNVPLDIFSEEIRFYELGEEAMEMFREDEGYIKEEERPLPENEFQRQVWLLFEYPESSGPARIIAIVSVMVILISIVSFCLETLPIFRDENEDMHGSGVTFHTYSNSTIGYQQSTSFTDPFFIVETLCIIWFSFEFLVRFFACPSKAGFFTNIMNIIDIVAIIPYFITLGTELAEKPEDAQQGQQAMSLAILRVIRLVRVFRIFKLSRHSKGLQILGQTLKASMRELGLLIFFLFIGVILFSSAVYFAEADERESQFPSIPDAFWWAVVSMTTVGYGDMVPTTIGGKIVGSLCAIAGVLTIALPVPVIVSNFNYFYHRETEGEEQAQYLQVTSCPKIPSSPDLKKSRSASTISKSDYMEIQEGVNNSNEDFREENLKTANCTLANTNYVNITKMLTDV
Chain of Kv1.1 (Q09470 whole entry): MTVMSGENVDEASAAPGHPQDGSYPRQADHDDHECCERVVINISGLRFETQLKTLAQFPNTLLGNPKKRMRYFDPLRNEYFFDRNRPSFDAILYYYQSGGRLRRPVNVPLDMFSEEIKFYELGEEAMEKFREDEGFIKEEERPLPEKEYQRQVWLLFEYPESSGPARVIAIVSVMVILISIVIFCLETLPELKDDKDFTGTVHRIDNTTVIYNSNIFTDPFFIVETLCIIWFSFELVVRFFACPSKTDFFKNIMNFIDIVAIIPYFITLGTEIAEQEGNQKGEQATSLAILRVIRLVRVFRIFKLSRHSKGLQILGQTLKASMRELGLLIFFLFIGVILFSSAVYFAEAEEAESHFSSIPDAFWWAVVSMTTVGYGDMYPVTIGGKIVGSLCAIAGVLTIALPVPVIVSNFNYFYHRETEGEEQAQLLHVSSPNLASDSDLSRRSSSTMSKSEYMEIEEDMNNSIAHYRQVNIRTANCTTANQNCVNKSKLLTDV

kaliotoxin
IC50 (Kv1.3): 0.6 nM
IC50 (Kv1.1): 40 nM
inhibition of Kv1.2 (Kv1.2): but not Kv1.2
blood glucose, toxin and insulin vs insulin only (ob/ob mice [1]; animals treated with kaliotoxin and insulin): significantly lower blood glucose
insulin sensitivity (ob/ob mice [1]; vs PBS): significantly increased insulin sensitivity

COc1ccc(CCN(C)CCCC(C#N)(c2ccc(OC)c(OC)c2)C(C)C)cc1OC (stereo not drawn) [verapamil]
inhibition of Kv1.3 activity (Kv1.3): inhibit Kv1.3 activity
insulin sensitivity [2]: increase insulin sensitivity

CNCCC(Oc1ccc(C(F)(F)F)cc1)c1ccccc1 (stereo not drawn) [fluxetine]
inhibition of Kv1.3 activity (Kv1.3): inhibit Kv1.3 activity
insulin sensitivity [2]: increase insulin sensitivity

margatoxin (TIINVKCTSPKQCLPPCKAQFGQSAGAKCMNGKCKCYPH)
insulin sensitivity (C57BL/6 mice; C57BL/6 mice, 0.1 μg/gram margatoxin IP, vs sham (PBS) injected controls): increased insulin sensitivity
fasting blood glucose (C57BL/6 mice; wild type C57BL/6 mice, margatoxin injection prior to study, vs PBS): lower fasting blood glucose
blood glucose in response to insulin (C57BL/6 mice; wild type C57BL/6 mice, toxin-treated vs PBS): significantly lower blood glucose in response to insulin
inhibition of Kv1.3 (Kv1.3): fairly specific and potent inhibitor of Kv1.3
fall in blood glucose of mice receiving insulin (db/db mice; db/db mice, margatoxin and insulin vs PBS and insulin): significantly greater fall in blood glucose
time at which difference in glucose levels was evident (db/db mice; db/db mice, margatoxin vs PBS): ≤ 30 min
time for which difference in glucose levels persisted (db/db mice; db/db mice, margatoxin vs PBS): up to 4.5 hours
sensitivity to insulin (db/db mice; fasting db/db mice, margatoxin IP 30 minutes before insulin, vs PBS): significant increase in sensitivity to insulin
inhibition of Kv1.2 (Kv1.2): also blocks Kv1.2
glucose uptake in L6 cells, margatoxin together with insulin (L6 cells; 200 nM insulin and 250 nM margatoxin, vs either alone or neither): significantly increased glucose uptake; also recorded: additive to that of insulin
glucose uptake in L6 cells (L6 cells; 2-deoxy-D-glucose, phloretin-sensitive uptake, 0.2-250 nM margatoxin): increases uptake of glucose in L6 cells in a dose dependent manner; also recorded: significant increase in phloretin-sensitive glucose uptake
EC50 (L6 cells; L6 cells, read-out: concentration necessary for 1/2 maximal increase in glucose uptake): 53 nM
body weight vs controls (ob/ob mice [3]; ob/ob mice treated long term with margatoxin, IP days 0, 5, 16): weighed significantly less than controls
body weight after margatoxin treatment ceased at day 16 (ob/ob mice [3]; ob/ob mice, weights assessed to day 36): began to gain weight thereafter
insulin sensitivity (ob/ob mice [1]; vs PBS): significantly increased insulin sensitivity; also recorded: significantly more sensitive to insulin
time after insulin at which difference in glucose level was evident (ob/ob mice [1]; ob/ob mice, margatoxin vs PBS): ≤ 30 min
time for which difference in glucose level persisted (ob/ob mice [1]; ob/ob mice, margatoxin vs PBS): at least 3 hours
fall in blood glucose in response to insulin administration, greater than in control mice (ob/ob mice [1]; ob/ob mice, single injection of margatoxin, vs PBS): 50%

— patent US6861405B2, “Compositions and methods relating to glucose metabolism, weight control, and food intake” (priority 2001, dated 2005)
